Experimental findings from ChEMBL document CHEMBL1144715, “Synthesis, checkpoint kinase 1 inhibitory properties and in vitro antiproliferative activities of new pyrrolocarbazoles” (Bioorg Med Chem, 2008) are described below.

For assay [1], the target named is T1, Serine/threonine-protein kinase Chk1 (Homo sapiens, UniProt O14757).
T1 sequence (O14757 whole entry): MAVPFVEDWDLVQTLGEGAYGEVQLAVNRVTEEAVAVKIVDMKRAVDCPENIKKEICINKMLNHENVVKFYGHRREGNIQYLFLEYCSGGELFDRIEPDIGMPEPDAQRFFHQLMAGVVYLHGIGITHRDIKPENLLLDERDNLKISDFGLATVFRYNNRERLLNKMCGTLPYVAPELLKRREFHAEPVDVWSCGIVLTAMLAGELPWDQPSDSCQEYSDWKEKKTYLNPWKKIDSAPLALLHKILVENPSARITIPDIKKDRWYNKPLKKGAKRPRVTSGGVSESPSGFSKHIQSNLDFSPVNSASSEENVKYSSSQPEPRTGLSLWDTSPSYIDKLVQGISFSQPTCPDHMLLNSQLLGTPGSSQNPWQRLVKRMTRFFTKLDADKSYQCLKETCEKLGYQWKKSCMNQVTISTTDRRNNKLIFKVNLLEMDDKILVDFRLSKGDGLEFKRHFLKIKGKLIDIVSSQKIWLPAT
Nature of the assay: Inhibition of human Chk1.

Assay [2] has as its target T2, Serine/threonine-protein kinase Chk1 (Homo sapiens) (UniProt O14757).
T2 sequence (whole entry): T1 sequence (O14757 whole entry)
Kind of assay: Inhibition of human Chk1 at 10 uM.

Assay [3] has as its system L1210. Nature of the assay: Cytotoxicity against mouse L1210 cells after 4 hrs by microculture tetrazolium assay. In kind it is functional, cell-based. The note with it: L1210, 4 h.
Assay [4] has as its system HCT-116. Nature of the assay: Cytotoxicity against human HCT116 cells after 4 hrs by microculture tetrazolium assay. In kind it is functional, cell-based. The conditions noted are these: HCT-116, 4 h.
Assay [5] relates to HT-29. Kind of assay: Cytotoxicity against human HT29 cells after 4 hrs by microculture tetrazolium assay. In kind it is functional, cell-based. The note with it: HT-29, 4 h.
For assay [6], the target named is Proto-oncogene tyrosine-protein kinase Src (Homo sapiens) (UniProt P12931). Kind of assay: Inhibition of Src at 10 uM after 20 mins.

pIC50: −log10 of the molar value. Where only a bound is given, the exact number is not on record here.

Proto-oncogene tyrosine-protein kinase Src (Homo sapiens), sequence (P12931 2-536 limits assumed): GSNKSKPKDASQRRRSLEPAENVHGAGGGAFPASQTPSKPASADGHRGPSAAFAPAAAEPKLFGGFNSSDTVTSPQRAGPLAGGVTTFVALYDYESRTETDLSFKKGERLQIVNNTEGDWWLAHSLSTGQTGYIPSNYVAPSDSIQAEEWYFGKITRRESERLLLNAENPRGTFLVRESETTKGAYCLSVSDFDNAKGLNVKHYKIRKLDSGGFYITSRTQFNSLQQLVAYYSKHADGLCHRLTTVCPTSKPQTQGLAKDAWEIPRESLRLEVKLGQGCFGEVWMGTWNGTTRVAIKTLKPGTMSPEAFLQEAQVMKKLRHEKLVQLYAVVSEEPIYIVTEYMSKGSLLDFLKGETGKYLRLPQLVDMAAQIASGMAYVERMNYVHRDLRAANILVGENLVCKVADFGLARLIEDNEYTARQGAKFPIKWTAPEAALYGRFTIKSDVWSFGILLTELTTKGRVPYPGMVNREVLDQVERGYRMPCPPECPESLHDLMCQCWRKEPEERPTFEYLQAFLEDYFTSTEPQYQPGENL

Regarding `O=C1NCc2c1c1c(c3c2[nH]c2ccccc23)C(=O)NC1=O`, the pIC50 in assay [1] is 7.62; in assay [3] it was below 4.30; in assay [4] it was 5.07; in assay [5], 6.24. Besides, the inhibition in assay [2] is 83%.
`O=C1NC(=O)c2c1c1c(c3c2[nH]c2ccccc23)C(=O)NC1`: the negative-log IC50 (pIC50) in assay [1] is 7.29.
Regarding `O=C1NC(=O)c2c1c1[nH]cnc1c1[nH]c3ccccc3c21` [GRANULATIMIDE], the pIC50 in assay [3] is 5.55; in assay [4] it was 5.21; in assay [5], 5.24.
Take `CC1(C)C(=O)c2c3c(c4c([nH]c5ccccc54)c2C1=O)C(=O)NC3`: the inhibition in assay [2] turned out to be 20%; in assay [6] it was 19%. In addition, the negative-log IC50 (pIC50) in assay [3] was 5.66; in assay [4] it was 5.77; in assay [5], 5.60.
With `O=C1NC(=O)c2c1c1c(O)ccc3c1c1c2c2ccccc2n1[C@]1(O3)O[C@H](CO)[C@@H](O)[C@H](O)[C@H]1O`, the pIC50 was 5.72 in assay [1], 4.67 in assay [3], 4.33 in assay [4] and 4.24 in assay [5]. Also, the inhibition in assay [2] worked out at 73%; in assay [6], 9%.
Regarding `O=C1NC(=O)c2c1c1c(O)ccc(O)c1c1[nH]c3ccccc3c21`, the pIC50 in assay [3] was 5.96; in assay [4] it was 5.51; in assay [5] it was 5.25.
The matching figures for `O=C1NC(=O)c2c1c1c3ccccc3[nH]c1n1cncc21` [ISOGRANULATIMIDE]: 5.00, 4.89 and 4.86.
With `O=c1[nH]c(=O)c2c1c1[nH]c3ccccc3c1c1c(=O)[nH]c(=O)c21` [BIS-IMIDE A], the values for the pIC50 in assay [3] and in assay [5] were 4.49 and 5.01, respectively.
As for `CC1(C)C(=O)c2c3c(c4c([nH]c5ccccc54)c2C1=O)C(=O)NC3=O`, the pIC50 in assay [1] was 4.84; in assay [3], 4.48; in assay [4], 4.49; in assay [5] it was 4.41. In assay [2], this compound returned an inhibition of 63%.
Take `O=c1ccc(=O)c2c1c1[nH]c3ccccc3c1c1c(=O)[nH]c(=O)c21`: the pIC50 in assay [3] was 5.17; in assay [4], 5.28; in assay [5] it was 4.76.

In general, pIC50 refers to the IC50 on a negative log10 scale, so that one unit is a factor of ten. The low end stands for a large IC50, the high end for a small IC50. Usually inhibition stands for the relative decrease from the control value, in per cent. High values mean strong suppression, low ones little suppression.
